Read-outs that look alike come from different tables or passages of the source.
Legend:
[1] = tested on: rice seedlings with OsACC mutations
Source text: The herbicide was applied with pressurized equipment at 0.2 MPa and a spray volume of 450 L/ha. Three weeks later, surviving seedlings were identified.

OsACC = assay: Saturated de novo mutagenesis of OsACC CT domain in rice protoplasts, 20 sgRNAs; assay type: cell-based
Source text: To test the ability of STEME to achieve saturated de novo mutagenesis in rice protoplasts, it has been taken acetyl-coenzyme A carboxylase (OsACC) as an example. ACC is a key enzyme in lipid biosynthesis and its carboxyltransferase (CT) domain is the target of herbicides (FIG. 5 b). Amino acid substitutions in the CT domain can confer herbicides resistance on grass. 20 sgRNAs has been designed, including 11 sgRNAs with forward direction NGD-3′ PAMs and 9 with reverse complement 5′-HCN (H=A, T or C) PAMs spanning a 168 bp DNA sequence that encodes 56 amino acids of the CT domain (FIG. 5b). Using STEME-NG, the sgRNAs covered 90.32% of the cytosines, 40.43% of the adenines, 77.78% of the guanines, and 38.89% of the thymines in the editing windows, corresponding in all to 61.31% of the bases of the coding strand. These sgRNAs has been co-transfected individually together with STEME-NG into rice protoplasts. A3A-PBE-NG and pCas9-NG served as controls. […] No base conversions were detected in the untreated control.
We also analyzed the amino acid substitutions generated by STEME-NG in the targeted 56 amino acids. […] Of these, twenty-four, twelve, and five amino acids had one, two, and three kinds of amino acids substitution, respectively. […] Similarly, A3A-PBE-NG mutated 33 amino acids, of which twenty-six, six, and one contained one, two, and three kinds of amino acids substitution, respectively. […] Thus, it promises to be a powerful tool for directed evolution of endogenous genes by saturated de novo mutagenesis in situ.
We used the Japonica rice variety Nipponbare to prepare protoplasts. Protoplast isolation and transformation were performed as described (Shan, Q. et al. Rapid and efficient gene modification in rice and Brachypodium using TALENs. Mol. Plant 6, 1365-1368 (2013).). 10 μg each of nuclease and sgRNA plasmid DNA were introduced into the protoplasts by PEG-mediated transfection, with a mean transformation efficiency of 40-55% as measured by hemocytometer. The transfected protoplasts were incubated at 23° C. and 60 h post-transfection they were collected and genomic DNA extracted for amplicon deep sequencing.
DNA extraction. The genomic DNA of protoplasts was extracted with a DNA-Quick Plant System (Tiangen Biotech, Beijing, China). Genomic DNA of regenerated rice seedlings was extracted with CTAB, and all the seedlings in each group were sampled together. The targeted site was amplified with specific primers, and the amplicons were purified with an EasyPure PCR Purification Kit (TransGen Biotech, Beijing, China), and quantified with a NanoDrop™ 2000 Spectrophotometer (Thermo Fisher Scientific, Waltham, MA, USA).

| Compound | herbicide resistance of seedlings ([1]; Group 2 seedlings, S1866F heterozygotes) | herbicide resistance of seedlings ([1]; Group 3 seedlings, A1884P heterozygotes) | herbicide resistance of seedlings ([1]; Group 6 seedlings carrying P1927F, spray 34 g active ingredient ha-1, three weeks) | herbicide resistance of seedlings ([1]; Group 20 seedlings carrying W2125C, spray 34 g active ingredient ha-1, three weeks) | amino acids with one kind of amino acid substitution (OsACC) | amino acids with three kinds of amino acid substitution (OsACC) | amino acids with two kinds of amino acid substitution (OsACC) | A>G or T>C substitutions (OsACC; coding strand) | Cs converted to Ts in the covered bases (OsACC; coding strand) | Gs converted to As in the covered bases (OsACC; coding strand) | amino acids substituted (OsACC; of the targeted 56 amino acids, silent, missense, nonsense) | indels (OsACC; rice protoplasts, 20 sgRNAs) |
| --- | --- | --- | --- | --- | --- | --- | --- | --- | --- | --- | --- | --- |
| CC(Oc1ccc(Oc2ncc(C(F)(F)F)cc2Cl)cc1)C(=O)O (stereo not drawn) [haloxyfop] | slightly weaker haloxyfop resistance | slightly weaker haloxyfop resistance | clearly herbicide resistant | clearly herbicide resistant | – | – | – | – | – | – | – | – |
| A3A-PBE-NG: A3A-PBE with nCas9-NG (D10A); protein SEQ ID NO: 186 | – | – | – | – | twenty-six | one | six | no A>G or T>C substitutions were found | 89.29% | 92.86% | 33 | < 0.01% |

Reference: patent US12612622B2, “Targeted mutagenesis using base editors” (Qi Biodesign Biotechnology Company Limited, priority 2018, dated 2026)
